What all share (assay type): biochemical
Assay [1] deals with T1, collagenase (MMP-1) (Homo sapiens, UniProt P03956).
T1 sequence (P03956 100-469): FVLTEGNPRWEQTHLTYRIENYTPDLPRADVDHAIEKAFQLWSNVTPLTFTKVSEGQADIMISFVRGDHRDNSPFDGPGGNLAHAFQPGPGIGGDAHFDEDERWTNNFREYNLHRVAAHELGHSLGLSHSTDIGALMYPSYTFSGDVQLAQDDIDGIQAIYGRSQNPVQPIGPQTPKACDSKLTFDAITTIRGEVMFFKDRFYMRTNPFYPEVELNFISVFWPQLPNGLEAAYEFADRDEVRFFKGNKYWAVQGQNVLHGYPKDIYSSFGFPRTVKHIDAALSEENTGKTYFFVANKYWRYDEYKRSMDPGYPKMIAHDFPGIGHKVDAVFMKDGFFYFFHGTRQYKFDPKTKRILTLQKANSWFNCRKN
The assay can be described thus: MMP-1 enzyme inhibition assay (coumarin-labelled peptide substrate). The settings on record: for IC50: read-out: IC50 MMP1. As for the experimental part:
(§1) Compounds of the invention were tested to assess their activities as inhibitors of MMP-1, MMP-2, MMP-9, MMP-14, MMP-12 and TACE. MMP-9 Assay Protocol
(§2) Compounds of the invention were tested for inhibitory activity against 92 kDa gelatinase (MMP-9) in an assay using a coumarin-labeled peptide substrate, (7-methoxycoumarin-4-yl)acetyl-Pro-Leu-Gly-Leu-(3-[2,4-dinitrophenyl]-L-2,3diaminopropionyl)-Ala-Arg-NH2 (McaPLGLDpaAR) (Knight et al, FEBS Lett. 1992; 263-266).
(§3) Stock solutions were made up as follows: Assay Butter: 100 mM Tris-HCl pH 7.6 containing 100 mM NaCl, 10 mM CaCl2, and 0.05% Brij 35.
(§4) Substrate: 0.4 mM McaPLGLDpaAR (from Bachem) (0.437 mg/ml) stock solution in 100% DMSO (stored at −20° C.). Dilute to 8 μM in assay butter.
(§5) Enzyme: Recombinant human 92 kDa gelatinase (MMP-9; APMA (4-aminophenyl mercuric acetate)-activated if necessary) appropriately diluted in assay butter.
(§6) Test Compounds were prepared initially as 10 mM compound solution in 100% DMSO, diluted to 1 mM in 100% DMSO, then serially diluted 3-fold in 100% DMSO across columns 1-10 of a 96-well microtitre plate Assay concentration range, 100 μM (column 1) to 5.1 nM (column 10).
(§7) The assay was performed in a total volume of 100 μL per well in 96-well microtitre plates. Activated enzyme (20 μL) was added to the wells followed by 20 μL of assay butter. Appropriate concentrations of test compounds dissolved in 10 μL of DMSO were then added followed by 50 μL of McaPLGLDpaAR (8 μM, prepared by dilution of DMSO stock in assay butter). For each as say ten concentrations of test compound were examined in duplicate. Control wells lack either enzyme or test compound. The reactions were incubated at 37° C. for 2 hours. The fluorescence at 405 nm was measured immediately with an SLT Fluostar fluorometer (SL T Labinstruments GmbH, Grödig, Austria) using 320 nm excitation, without stopping the reaction.
(§8) The effect of the test compound was determined from the dose response curve generated by the 10 duplicate concentrations of inhibitor. The IC50 (the concentration of compound required to give a 50% decrease in enzyme activity) was obtained by fitting data to the equation, Y=a+((b−a)/(1+(c/X)^d)). (Y=inhibition achieved for a particular dose; X=the dose in nM; a=minimum y or zero % inhibition; b=maximum y or 100% inhibition; c=is the IC50; d=is the slope). The result was rounded to one significant figure.
Compounds of the invention were tested for inhibitory activity against collagenase (MMP-1) in an assay using a coumarin-labelled peptide substrate, (7-methoxycoumarin-4-yl)acetyl-Pro-Leu-Gly-Leu-(3-[2,4-dinitrophenyl]-L-2,3diaminopropionyl)-Ala-Arg-NH2 (Mca PLGLDpaAR) (Knight et al, 1992, above). The protocol for this assay was as described for the MMP-9 assay above.

The target of assay [2] is 92 kDa gelatinase (MMP-9) (Homo sapiens, UniProt P14780). Description: MMP-9 enzyme inhibition assay (coumarin-labeled peptide substrate). The settings on record: for IC50: read-out: IC50 MMP9. The protocol: as §1, §2, §3, §4, §5, §6, §7, §8
Assay [3] has as its target metalloelastase (MMP-12) (Homo sapiens, UniProt P39900). The assay can be described thus: MMP-12 enzyme inhibition assay (coumarin-labelled peptide substrate). The following applies: read-out: IC50 MMP12. As for the experimental part:
as §1, §2, §3, §4, §5, §6, §7, §8
Compounds of the invention were tested for inhibitory activity against metalloelastase (MMP-12) in an assay using a coumarin-labelled peptide substrate, (7-methoxycoumarin-4-yl)acetyl-Pro-Leu-Gly-Leu-(3-[2,4-dinitrophenyl]-L-2,3-diaminopropionyl)-Ala-Arg-NH2 (McaPLGLDpaAR) (Knight et al, 1992, above). The protocol for this assay was as described for the MMP-9 assay above.

Assay [4] concerns the target MMP-14 (Homo sapiens, UniProt P50281). Description: MMP-14 enzyme inhibition assay (coumarin-labelled peptide substrate). The following applies: for inhibition at 0.1 µM / inhibition at 5 µM: read-out: percentage inhibition MMP14; for IC50: read-out: IC50 MMP14. The protocol:
as §1, §2, §3, §4, §5, §6, §7, §8
Compounds of the invention were tested for inhibitory activity against MMP-14 in an assay using a coumarin-labelled peptide substrate, (7-methoxycoumarin-4-yl)acetyl-Pro-Leu-Gly-Leu-(3-[2,4-dinitrophenyl]-L-2,3diaminopropionyl)-Ala-Arg-NH2 (Mca PLGLD paAR) (Knight et al, 1992, above). The protocol for this assay was as described for the MMP-9 assay above.

Setting [5] is: read-out: percentage inhibition MMP1.

In patent publication US7879876B2, “Sulfonamide derivatives and use thereof for the modulation of metalloproteinases” (Merck Serono SA, priority 2005, dated 2011) one finds inhibition and IC50 data, which are given here for 15 compounds.

For orientation: inhibition means the drop in the measured response relative to a control, in per cent. Usually IC50 stands for the concentration needed to halve the response being measured.

Sequence of metalloelastase (MMP-12) (P39900 106-470): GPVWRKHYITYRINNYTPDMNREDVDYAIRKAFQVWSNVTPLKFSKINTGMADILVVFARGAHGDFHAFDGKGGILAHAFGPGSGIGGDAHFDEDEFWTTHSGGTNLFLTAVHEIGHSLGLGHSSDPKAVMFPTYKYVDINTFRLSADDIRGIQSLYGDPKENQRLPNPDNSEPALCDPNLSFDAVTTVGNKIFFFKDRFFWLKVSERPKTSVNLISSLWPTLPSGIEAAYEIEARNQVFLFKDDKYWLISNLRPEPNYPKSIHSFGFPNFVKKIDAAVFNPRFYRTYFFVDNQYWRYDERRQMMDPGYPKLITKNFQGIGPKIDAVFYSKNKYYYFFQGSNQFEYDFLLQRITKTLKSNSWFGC
Sequence of 92 kDa gelatinase (MMP-9) (P14780 107-707 limits assumed): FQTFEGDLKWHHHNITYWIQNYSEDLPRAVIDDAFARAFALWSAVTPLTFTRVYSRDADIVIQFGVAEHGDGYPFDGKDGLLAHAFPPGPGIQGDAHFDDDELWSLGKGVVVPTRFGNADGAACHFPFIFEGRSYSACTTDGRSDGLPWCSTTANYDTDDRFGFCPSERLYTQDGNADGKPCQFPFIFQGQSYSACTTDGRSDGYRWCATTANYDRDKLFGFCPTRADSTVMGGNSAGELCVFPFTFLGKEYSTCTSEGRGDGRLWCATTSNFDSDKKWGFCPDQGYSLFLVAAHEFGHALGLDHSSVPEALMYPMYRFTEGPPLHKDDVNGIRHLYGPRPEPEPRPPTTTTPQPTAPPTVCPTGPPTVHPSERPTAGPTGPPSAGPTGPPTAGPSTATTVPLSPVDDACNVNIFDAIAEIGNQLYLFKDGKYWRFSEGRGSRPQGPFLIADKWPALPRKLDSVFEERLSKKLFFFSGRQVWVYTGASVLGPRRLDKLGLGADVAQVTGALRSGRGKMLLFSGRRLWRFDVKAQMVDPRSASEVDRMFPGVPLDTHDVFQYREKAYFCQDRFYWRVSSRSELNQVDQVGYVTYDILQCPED

As to `CC(C)(C)OC(=O)N1CCC[C@@H]1[C@@H](CS(=O)(=O)N1CCc2cc(Cl)c(Cl)cc2C1)N(O)C=O` (racemic) [Example 44, tert-butyl (2RS)-2-{(1SR)-2-[(6,7-dichloro-3,4-dihydro-isoquinolin-2(1H)-yl)sulfonyl]-1-[formyl(hydroxy)amino]ethyl}pyrrolidine-1-carboxylate], the inhibition at 5 µM turned out to be 9% in assay [1] (setting [5]); 21% in assay [2] (@ 5 μM, read-out: percentage inhibition MMP9); 83% in assay [4]. In addition, in assay [3], the IC50 is 7 nM. In assay [4], the inhibition at 0.1 µM turned out to be 5%.

On to `O=CN(O)C(CCc1ccccc1)CS(=O)(=O)N1CCc2ccccc2C1` (centres unmarked) [Example 1, N-{1-[(3,4-dihydroisoquinolin-2(1H)-ylsulfonyl)methyl]-3-phenylpropyl}-N-hydroxyformamide], for which the half-maximal inhibitory concentration (IC50) in assay [1] was more than 5000 nM; in assay [2], more than 5000 nM; in assay [3], 27 nM; in assay [4], more than 5000 nM.

Consider `CC1(C)OC[C@H](C(CS(=O)(=O)N2CCc3ccccc3C2)N(O)C=O)O1` (stereo partly drawn) [Example 2, N-{2-(3,4-dihydroisoquinolin-2(1H)-ylsulfonyl)-1-[(4S)-2,2-dimethyl-1,3-dioxolan-4-yl]ethyl}-N-hydroxyformamide], for which the IC50 is more than 5000 nM in assay [1], more than 5000 nM in assay [2], 14 nM in assay [3] and more than 5000 nM in assay [4].

Take `CCCCCC(CS(=O)(=O)N1CCc2ccccc2C1)N(O)C=O` (centres unmarked) [Example 3, N-{1-[(3,4-dihydroisoquinolin-2(1H)-ylsulfonyl)methyl]hexyl}-N-hydroxyformamide]: the inhibition at 5 µM in assay [1] (setting [5]) is 31%; in assay [4], 67%. Besides, the IC50 in assay [2] is more than 5000 nM; in assay [3], 14 nM.

`O=CN(O)C(CS(=O)(=O)N1CCc2ccccc2C1)C1CC1` (centres unmarked) [Example 4, N-[1-cyclopropyl-2-(3,4-dihydroisoquinolin-2(1H)-ylsulfonyl)ethyl]-N-hydroxyformamide]: the inhibition at 5 µM in assay [1] (setting [5]) turned out to be 19%; in assay [4], 29%. The IC50 in assay [2] is more than 5000 nM; in assay [3], 65 nM.

`O=CN(O)C(CCc1ccccc1)CS(=O)(=O)N1Cc2ccccc2C1` (centres unmarked) [Example 6, N-{1-[(1,3-dihydro-2H-isoindol-2-ylsulfonyl)methyl]-3-phenylpropyl}-N-hydroxyformamide]: the IC50 was more than 5000 nM in assay [1], 877 nM in assay [2], 9 nM in assay [3] and 865 nM in assay [4].

On to `O=CN(O)C(CS(=O)(=O)N1CCc2ccccc2C1)c1cncnc1` (centres unmarked) [Example 9, N-[2-(3,4-dihydroisoquinolin-2(1H)-ylsulfonyl)-1-pyrimidin-5-ylethyl]-N-hydroxyformamide], for which the inhibition at 5 µM in assay [1] (setting [5]) is 29%; in assay [4] it was 61%. For the same compound, the concentration for half-maximal inhibition (IC50) was more than 5000 nM in assay [2] and 49 nM in assay [3].

Turning to `O=CN(O)C(CS(=O)(=O)N1CCc2ccccc2C1)c1cccnc1` (centres unmarked) [Example 10, N-[2-(3,4-dihydroisoquinolin-2(1H)-ylsulfonyl)-1-pyridin-3-ylethyl]-N-hydroxyformamide], the values for the inhibition at 5 µM in assay [1] (setting [5]) and in assay [4] were 8% and 36%, respectively. For the same compound, the results for the IC50 in assay [2] and in assay [3] were more than 5000 nM and 13 nM, respectively.

Take `COc1cc2c(cc1OC)CN(S(=O)(=O)CC(CCc1ccccc1)N(O)C=O)CC2` (centres unmarked) [Example 12, N-(1-{[(6,7-dimethoxy-3,4-dihydroisoquinolin-2(1H)-yl)sulfonyl]methyl}-3-phenylpropyl)-N-hydroxyformamide]: the inhibition at 5 µM in assay [1] (setting [5]) and in assay [4] was 0% each time. Besides, the IC50 in assay [2] is more than 5000 nM; in assay [3] it was 92 nM.

`COc1ccc(C(CS(=O)(=O)N2CCc3ccccc3C2)N(O)C=O)cn1` (centres unmarked) [Example 13, N-[2-(3,4-dihydroisoquinolin-2(1H)-ylsulfonyl)-1-(6-methoxypyridin-3-yl)ethyl]-N-hydroxyformamide]: the inhibition at 5 µM came to 16% in assay [1] (setting [5]) and 64% in assay [4]. Moreover, the concentration for half-maximal inhibition (IC50) was more than 5000 nM in assay [2] and 10 nM in assay [3].

Turning to `COc1cc2c(cc1OC)CN(S(=O)(=O)CC([C@H]1COC(C)(C)O1)N(O)C=O)CC2` (stereo partly drawn) [Example 14, N-{2-[(6,7-dimethoxy-3,4-dihydroisoquinolin-2(1H)-yl)sulfonyl]-1-[(4S)-2,2-dimethyl-1,3-dioxolan-4-yl]ethyl}-N-hydroxyformamide], the inhibition at 5 µM in assay [1] (setting [5]) and in assay [4] was 0% each time. The values for the concentration for half-maximal inhibition (IC50) in assay [2] and in assay [3] were more than 5000 nM and 41 nM, respectively.

In the case of `CC1(C)OC[C@H](C(CS(=O)(=O)N2Cc3ccccc3C2)N(O)C=O)O1` (stereo partly drawn) [Example 16, N-{2-(1,3-dihydro-2H-isoindol-2-ylsulfonyl)-1-[(4S)-2,2-dimethyl-1,3-dioxolan-4-yl]ethyl}-N-hydroxyformamide], the inhibition at 0.1 µM amounted to 5% in assay [1] (@ 0.1 μM, read-out: percentage inhibition MMP1) and 0% in assay [4]. In addition, the inhibition at 5 µM in assay [1] (setting [5]) came out at 74%; in assay [4], 80%. In addition, the values for the IC50 in assay [2] and in assay [3] were more than 5000 nM and 12 nM, respectively.

With `CC(C)c1ccc2c(c1)CCN(S(=O)(=O)CC([C@H]1COC(C)(C)O1)N(O)C=O)C2` (stereo partly drawn) [Example 18, N-{1-[(4S)-2,2-dimethyl-1,3-dioxolan-4-yl]-2-[(6-isopropyl-3,4-dihydroisoquinolin-2(1H)-yl)sulfonyl]ethyl}-N-hydroxyformamide], the values for the inhibition at 5 µM in assay [1] (setting [5]) and in assay [4] were 9% and 95%, respectively. The values for the 50% inhibitory concentration (IC50) in assay [2] and in assay [3] were more than 5000 nM and 1.4 nM, respectively. For the same compound, in assay [4], the inhibition at 0.1 µM came out at 13%.

For the compound `CC1(C)OC[C@H](C(CS(=O)(=O)N2CCc3ccc(Cl)cc3C2)N(O)C=O)O1` (stereo partly drawn) [Example 19, N-{2-[(7-chloro-3,4-dihydroisoquinolin-2(1H)-yl)sulfonyl]-1-[(4S)-2,2-dimethyl-1,3-dioxolan-4-yl]ethyl}-N-hydroxyformamide], the inhibition at 5 µM turned out to be 45% in assay [1] (setting [5]) and 81% in assay [4]. For the same compound, the IC50 in assay [2] was more than 5000 nM; in assay [3] it was 6 nM. Also, the inhibition at 0.1 µM in assay [4] turned out to be 10%.

For `O=CN(O)C(CS(=O)(=O)N1CCc2ccc(Cl)cc2C1)C1CCCC1` (centres unmarked) [Example 21, N-{2-[(7-chloro-3,4-dihydroisoquinolin-2(1H)-yl)sulfonyl]-1-cyclopentylethyl}-N-hydroxyformamide], the inhibition at 5 µM in assay [1] (setting [5]) was found to be 20%; in assay [4], 45%. Besides, the figures for the IC50 in assay [2] and in assay [3] were more than 5000 nM and 19 nM, respectively.
